The source of these data is patent publication US10111854B2, “Synthesis and use of amine-containing flavonoids as potent anti-leishmanial agents” (The Hong Kong Polytechnic University, priority 2014, dated 2018).

The test system of series [1] is L. amazonensis LV78 amastigotes. Nature of the series: Anti-amastigote activity in infected PEM, L. amazonensis LV78. The series is classed as cell-based. Particulars: for IC50: Leishmania amazonensis, 72 h, infected PEM, 3 days, Giemsa; for Selective index (a)/(b): IC50 RAW264.7 over IC50 L. amazonensis LV78 amastigotes. Here is the method: (§1) Mouse peritoneal elicited macrophages (PEM) were obtained as previously described (2). A round cover slip (12 mm in diameter) was placed into each well of 24-well culture plate. Mouse PEM were resuspended in supplemented DMEM media containing 10% heat inactivated FBS (v/v), 100 U/mL penicillin and 100 μg/mL streptomycin and seeded into each well at a cell density of 1×10^5 cells per 500 μL. Macrophages were allowed to attach overnight. Non-adherent cells were removed by gentle washing with un-supplemented DMEM media twice. Adherent macrophages were infected with late-log promastigotes at a parasite-to-macrophage ratio of 20:1 overnight at 37° C. with 5% CO2. Non-internalized promastigotes were removed by washing twice with un-supplemented DMEM media. Infected macrophages were further incubated in 500 μL of supplemented DMEM media in the presence or absence of FM for 72 hours at 37° C. After incubation, cover slips were stained with Giemsa and the percentage of macrophages infected and number of amastigotes per 100 macrophages was enumerated.
(§2) PEM cells were infected with late-log promastigotes (L. amazonensis LV78, L. braziliensis UA847, L. donovani HU3, L. donovani 39) for 24 hr at 37° C. Infected macrophages were then treated with various antileishmanials and incubated for 3 days at 37° C. After 3 days, the cover slips were stained with Giemsa. The number of amastigotes per 100 macrophages were determined and used to calculate IC50 values.

The subject of series [2] is L. donovani Ld39 promastigotes. Nature of the series: Anti-promastigote activity (MTS assay), L. donovani Ld39. The series is classed as cell-based. Particulars: Leishmania donovani, 72 hours. The procedure:
(§3) Promastigotes of visceral L. donovani Ld39 and LdHU3, and cutaneous L. amazonensis LV78, L. braziliensis UA847 and L. major FV1 were employed in the study. All strains were cultured in Schneider's Drosophila Medium (Invitrogen), pH 6.9 supplemented with 10% (v/v) heat inactivated fetal bovine serum (Hyclone) with 4 mM glutamine (Sigma) and 25 μg/mL gentamicin solution (Invitrogen) at 27° C. for 4 days. RAW264.7 cells were cultured in supplemented DMEM media with 10% heat inactivated FBS and 100 U/mL penicillin and 100 μg/mL of streptomycin. They were maintained at 37° C. in a humidified atmosphere with 5% CO2. The cells were split constantly after a confluent monolayer has been formed. The cells were harvested by a cell scraper.
(§4) Anti-promastigote activity was determined according to previous procedures (1) by Cell Titer 96® Aqueous Assay (Promega) that employed a tetrazolium compound. Promastigotes were seeded into 96-well flat bottom microtiter plate at 1×10^5 cells per well in a final volume of 100 μL medium and incubated with a series of concentrations of synthetic FM. Parasites were incubated at 27° C. for 72 hours. After 72 hours of incubation, 10 μL of MTS:PMS mixture [MTS:2-(4,5-Dimethylthiazol-2-yl-)-5-[3-(carboxymethoxy)phenyl]-2-(4-sulfophenyl)-2H-tetrazolium); PMS: phenazine methosulfate both purchased from Sigma] was added into each well of microtiter plate. The plate was then incubated at 27° C. for 4 hours for color development. After 4 hours of incubation, the OD values were determined at 490 nm using automatic microtiter plate reader (Bio-Rad).
(§5) IC50 values of known antileishmanials and the amine-containing flavonoid monomers of the present invention to promastigotes (L. amazonensis LV78, L major FV1, L. donovani HU3, L. donovani 39), macrophages (Raw 264.7 and PEM) and mouse fibroblast (L929) were determined. The anti-promastigotes activities and cytotoxicity of the amine-containing flavonoid monomers of the invention are shown in Table 1.
On the technique in general: Tetrazolium dyes change colour on reduction, which living cells bring about.

The subject of series [3] is promastigotes (L. amazonensis LV78, L major FV1, L. donovani HU3, L. donovani 39). Nature of the series: Anti-promastigote activity, strain not given. Particulars: Leishmania amazonensis; strain not specified; read-out: IC50 against promastigotes. The series is classed as cell-based. The procedure:
as §4, §5

Series [4] relates to L. amazonensis LV78 promastigotes. Nature of the series: Anti-promastigote activity (MTS assay), L. amazonensis LV78. The format is cell-based. The settings on record: Leishmania amazonensis, 72 hours. The procedure:
as §3, §4, §5

The nature of series [5]: Cytotoxicity, peritoneal elicited macrophages (PEM). The format is cell-based, mouse. The settings on record: mouse, Cytotoxicity IC50, PEM. Here is the method: as §1, §5
In series [6] the test system is L. donovani HU3 promastigotes. Nature of the series: Anti-promastigote activity (MTS assay), L. donovani HU3. The settings on record: Leishmania donovani, 72 hours. The series is classed as cell-based. The procedure: as §3, §4, §5
The nature of series [7]: Cytotoxicity, L929 fibroblasts. The settings on record: mouse. The format is cell-based, mouse. The procedure:
as §5

For series [8], the system named is L. donovani Ld39 amastigotes (SSG-resistant). Description: Anti-amastigote activity in infected PEM, L. donovani Ld39. The format is cell-based. Particulars: for IC50: Leishmania donovani, 72 h, infected PEM, 3 days, Giemsa, SSG-resistant; for Selective index (a)/(c): IC50 RAW264.7 over IC50 L. donovani Ld39 amastigotes. The procedure:
as §1, §2

Series [9] relates to L. major FV1 promastigotes. Description: Anti-promastigote activity (MTS assay), L. major FV1. The series is classed as cell-based. The settings on record: Leishmania major, 72 hours. The procedure: as §3, §4, §5
Series [10] concerns L. donovani HU3 amastigotes. Description: Anti-amastigote activity in infected PEM, L. donovani HU3. The series is classed as cell-based. The settings on record: for IC50: Leishmania donovani, 72 h, infected PEM, 3 days, Giemsa, SSG-sensitive. Here is the method:
as §1, §2

Series [11] deals with amastigotes (L. amazonensis LV78, L. braziliensis UA847, L. donovani HU3, L. donovani 39). Description: Anti-amastigote activity, strain not given. The format is cell-based. Particulars: strain not specified; visceral and cutaneous Leishmania; read-out: IC50 against amastigotes. Here is the method:
as §1, §2

As usually defined, the IC50 is the concentration at which inhibition is half-maximal. On to `CN(CCOc1ccc(-c2cc(=O)c3ccccc3o2)cc1)CCN(C)Cc1ccncc1` [FM02, 2-(4-(2-(methyl(2-(methyl(pyridin-4-ylmethyl)amino)ethyl)amino)ethoxy)phenyl)-4H-chromen-4-one], for which the IC50 in series [1] is 4.7 ± 1 µM; in series [2], 2.1 ± 0.6 µM; in [3] it was below 5 µM; in series [4] it was 4.6 ± 0.6 µM; in series [5] it was 22 µM; in series [6], 1.8 ± 0.3 µM. Further, the IC50 in series [7] was 22.1 ± 4 µM; in series [8], 9.6 µM; in series [9], 5.4 ± 1 µM; in series [10], above 10 µM; in series [11], below 5 µM.

As to `CN(C)CCOCCOc1ccc(-c2cc(=O)c3ccccc3o2)cc1` [FM06, 2-(4-(2-(2-(dimethylamino)ethoxy)ethoxy)phenyl)-4H-chromen-4-one], the 50% inhibitory concentration (IC50) was 4.5 ± 1.8 µM in series [1]; 1.1 ± 0.1 µM in series [2]; below 5 µM in series [3]; 2 ± 0.3 µM in series [4]; 2.2 ± 0.5 µM in [6]; above 33 µM in series [7]. Further, the IC50 in [8] was above 10 µM; in [9], 3.6 ± 0.7 µM; in series [10], above 10 µM; in [11], below 5 µM.

Consider `O=c1cc(-c2ccc(OCCOCCNCc3ccncc3)cc2)oc2ccccc12` [FM08, 2-(4-(2-(2-((pyridin-4-ylmethyl)amino)ethoxy)ethoxy)phenyl)-4H-chromen-4-one], for which the IC50 in series [1] is 6.7 ± 1.8 µM; in [2] it was 2.7 ± 0.9 µM; in series [3], below 5 µM; in series [4], 8.3 ± 1.9 µM; in series [6], 1.4 ± 0.4 µM; in series [7] it was above 33 µM. In addition, the IC50 in series [8] is above 10 µM; in [9], 9.5 ± 1.2 µM; in [10], above 10 µM.

On to `O=c1cc(-c2ccc(OCC3CCN(Cc4ccncc4)CC3)cc2)oc2ccccc12` [FM13, 2-(4-((1-(pyridin-4-ylmethyl)piperidin-4-yl)methoxy)phenyl)-4H-chromen-4-one], for which the “Selective index (a)/(b)” value is listed as above 40 in [1] and above 10 in series [10] (IC50 RAW264.7 over IC50 L. donovani HU3 amastigotes). Also, the IC50 is 2.5 ± 0.5 µM in series [1]; 0.7 ± 0.2 µM in [2]; below 5 µM in series [3]; 3.5 ± 1.1 µM in series [4]; 1.1 ± 0.6 µM in series [6]; above 100 µM in [7]. For the same compound, the IC50 in series [8] is 3.3 µM; in series [9] it was 5.7 ± 3.1 µM; in series [10], above 10 µM; in series [11] it was below 5 µM. Further, the “Selective index (a)/(c)” value in series [8] is above 33.

On to `O=c1cc(-c2ccc(OCCN3CCCN(Cc4ccncc4)CC3)cc2)oc2ccccc12` [FM14, 2-(4-(2-(4-(pyridin-4-ylmethyl)-1,4-diazepan-1-yl)ethoxy)phenyl)-4H-chromen-4-one], for which the “Selective index (a)/(b)” value in [1] amounted to 11.4. The IC50 in series [1] is 1.9 ± 0.5 µM; in series [2], 1.4 ± 0.9 µM; in series [3], below 5 µM; in [4], 1.4 ± 0.3 µM; in series [6], 0.3 ± 0.1 µM; in series [7], 10.6 µM. Moreover, the IC50 is 8.4 µM in series [8], 1.6 ± 0.6 µM in series [9], above 7 µM in series [10] and below 5 µM in series [11].

As to `O=C(COc1ccc(-c2cc(=O)c3ccccc3o2)cc1)N1CCCN(Cc2ccncc2)CC1` [FM15, 2-(4-(2-oxo-2-(4-(pyridin-4-ylmethyl)-1,4-diazepan-1-yl)ethoxy)phenyl)-4H-chromen-4-one], the IC50 in [1] is above 9 µM; in series [2], 1.8 ± 0.7 µM; in [3], below 5 µM; in series [4], 4.8 ± 1.3 µM; in [6] it was 1.5 ± 0.3 µM; in series [7] it was 14.9 ± 2.6 µM. The half-maximal inhibitory concentration (IC50) is 3.3 µM in series [8], 6.4 ± 1.7 µM in series [9], above 10 µM in series [10] and below 5 µM in series [11].

Take `O=c1cc(-c2ccc(OCCC3CCCCN3Cc3ccncc3)cc2)oc2ccccc12` (stereo not drawn) [FM17, 2-(4-(2-(1-(pyridin-4-ylmethyl)piperidin-2-yl)ethoxy)phenyl)-4H-chromen-4-one]: in [1], the “Selective index (a)/(b)” value is above 29.4. The IC50 in [1] is 3.4 ± 0.9 µM; in series [2], 1.5 ± 0.5 µM; in series [3], below 5 µM; in series [4] it was 0.9 ± 0.3 µM; in [6], 0.4 ± 0.1 µM; in series [7] it was above 100 µM. Moreover, the IC50 in series [8] is above 10 µM; in series [9], 2.1 ± 0.5 µM; in series [10] it was above 10 µM; in series [11], below 5 µM.

In the case of `O=c1cc(-c2ccc(OC[C@@H]3CCCN3Cc3ccncc3)cc2)oc2ccccc12` [FM18, (S)-2-(4-((1-(pyridin-4-ylmethyl)pyrrolidin-2-yl)methoxy)phenyl)-4H-chromen-4-one], the “Selective index (a)/(b)” value in series [1] was 17.0. The IC50 was 3.1 ± 0.1 µM in [1]; 2.7 ± 0.9 µM in series [2]; below 5 µM in series [3]; 5.5 ± 1 µM in series [4]; 1.9 ± 0.4 µM in [6]; 39.1 ± 2.5 µM in series [7]. Moreover, the half-maximal inhibitory concentration (IC50) in series [8] is above 10 µM; in series [9] it was 4.9 ± 0.4 µM; in [10], above 9 µM; in [11], below 5 µM.

Regarding `NCCOCCOc1ccc(-c2cc(=O)c3ccccc3o2)cc1` [FM20, 2-(4-(2-(2-(amino)ethoxy)ethoxy)phenyl)-4H-chromen-4-one], the IC50 in series [2] came to 34.9 ± 14.1 µM; in series [4], 57.6 ± 37.3 µM; in series [5], 57.5 ± 9.2 µM; in series [7], 41.5 ± 15.6 µM; in series [8], 0.7 ± 0.1 µM; in series [9], 59.8 ± 6.9 µM. The “Selective index (a)/(c)” value in series [8] amounted to 22.6.

Turning to `O=c1cc(-c2ccc(OCCOCCN(CCOCCO)Cc3ccncc3)cc2)oc2ccccc12` [FM21, 2-(4-(2-(2-((2-(2-hydroxyethoxy)ethyl)(pyridin-4-ylmethyl)amino)ethoxy)ethoxy)phenyl)-4H-chromen-4-one], the “Selective index (a)/(b), (a) measured using PEM” value in series [1] (IC50 PEM over IC50 L. amazonensis LV78 amastigotes) stood at 13. Moreover, the IC50 came to 4.5 µM in [1]; 3.4 ± 0.9 µM in [2]; 47.8 ± 18.7 µM in series [4]; 58.5 ± 4.3 µM in series [5]; 24 µM in [7]; 0.33 µM in series [8]. The same compound had an IC50 in series [9] of 22.6 ± 10.9 µM. Also, the “Selective index (a)/(c), (a) measured using PEM” value in [8] (IC50 PEM over IC50 L. donovani Ld39 amastigotes) was determined as 177.

For `NC[C@@H]1O[C@H](O[C@H]2[C@@H](O)[C@H](O[C@@H]3[C@@H](O)[C@H](N)C[C@H](N)[C@H]3O[C@H]3O[C@H](CO)[C@@H](O)[C@H](O)[C@H]3N)O[C@@H]2CO)[C@H](N)[C@@H](O)[C@@H]1O` [Paromomycin, reference compound], the IC50 in series [2] was 24.5 ± 2.4 µM; in [5], above 100 µM; in series [8], 41 ± 1.1 µM.
